Results: patent US20240116853A1, “2-HYDROXY-5-[2-(4-(TRIFLUOROMETHYLPHENYL)ETHYLAMINO)]BENZOIC ACID CRYSTAL FORMS AND PREPARATION METHOD THEREFOR” (GNT PHARMA CO., LTD., priority 2020, published 2024)
Values after ≈ are worked out from the molar mass of the structure shown.

Experiments:
Alzheimer's disease = conditions: background statement; cited from earlier work
[1] = crystalline form stability test (XRPD after storage at 40° C. and 60% RH for three months); format: physicochemical
Protocol: In the present disclosure, the experimental conditions of X-ray powder diffraction are as follows. The test was performed by an X-ray powder diffractometer (radiation source Cu-kα, μ=1.5418 Å), and the XRPD spectrum with 2θ value of 3˜40° was scanned. The XRPD spectra of crystalline form I in Example 1 and crystalline form II in Example 2 are shown in FIG. 1 and FIG. 5, respectively, and the XRPD data are shown in Table 1. In order to test the stability of the crystalline form, the crystalline form I in Example 1 and the crystalline form II in Example 2 were subjected to powder diffraction test after being left under 40° C. and 60% relative humidity (RH) conditions for three months, and the results are shown in FIG. 1 and FIG. 5, respectively.
Crystalline form stability test: a certain amount of samples were left under 40° C. and 60% RH conditions for three months, and their powder diffraction results were tested, as shown in FIG. 1.
Crystalline form stability test: a certain amount of samples were left under 40° C. and 60% RH conditions for three months, and their powder diffraction results were tested, as shown in FIG. 5.

[2] = apparent solubility tested by HPLC; format: physicochemical; conditions: for Chromatographic peak area: HPLC peak area of the apparent solubility test; for apparent solubility compared with raw material: HPLC, versus crude raw materials

| Compound | effect on Alzheimer's disease in clinical trials (Alzheimer's disease) | crystalline form stability (XRPD characteristic peaks versus initial time) [1] | Chromatographic peak area [2] | apparent solubility compared with raw material [2] | Solubility (apparent solubility) ([2]; tested by HPLC) [µg/mL] | solubility ([2]; thermodynamic from solid, tested by HPLC) [µg/mL] |
| --- | --- | --- | --- | --- | --- | --- |
| O=C(O)c1cc(NCCc2ccc(C(F)(F)F)cc2)ccc1O [2-hydroxy-5-[2-(4-(trifluoromethylphenyl)ethylamino)]benzoic acid] | good inhibitory effect on Alzheimer's disease | – | – | – | – | – |
| O=C(O)c1cc(NCCc2ccc(C(F)(F)F)cc2)ccc1O [Crystalline form I, 2-hydroxy-5-[2-(4-(trifluoromethylphenyl)ethylamino)]benzoic acid] | – | stable and unchanged | 263684 | higher apparent solubility | 1880 (≈ 5.78 mM) | – |
| O=C(O)c1cc(NCCc2ccc(C(F)(F)F)cc2)ccc1O [Crystalline form II, 2-hydroxy-5-[2-(4-(trifluoromethylphenyl)ethylamino)]benzoic acid] | – | relatively stable | 311308 | higher apparent solubility | 2600 (≈ 7.99 mM) | – |
| O=C(O)c1cc(NCCc2ccc(C(F)(F)F)cc2)ccc1O [Raw material, 2-hydroxy-5-[2-(4-(trifluoromethylphenyl)ethylamino)]benzoic acid] | – | – | 249333 | – | – | 1770 (≈ 5.44 mM) |
